Measurements taken from EP1180991B1, “GAMBOGIC ACID DERIVATIVES AS ACTIVATORS OF CASPASES AND INDUCERS OF APOPTOSIS” (Cytovia, Inc., priority 1999, dated 2000).

Legend:
A-549 [1] = assay: Inhibition of cell proliferation (GI50) and cell death (LC50), CellTiter 96 (Example 91); assay type: cell-based; settings: Homo sapiens, A549, A-549, 48 h
Protocol: (§1) T-47D, ZR-75-1, PC-3, human prostate cancer cell line DU-145, human non-small cell lung cancer cell line A-549, human small cell lung cancer cell line SHP-77, HL-60 and MRC-5 cells were grown and harvested as in Example 90. […] The samples were mixed by agitation and incubated at 37° C for 2-4 h in a 5% CO2-95% humidity incubator. […] This determines the possible background absorbance of the test compounds. No absorbance for gambogic acid or its analogs or derivatives was found at 490 nm. After the 2-4 h incubation, the samples were read for absorbance as above (ATest).
(§2) The samples were mixed by agitation and incubated at 37° C for 2-4 h in a 5% CO2-95% humidity incubator. Absorbance was read as above, (AT=0) defining absorbance for initial cell number used as baseline in GI50 determinations and (Amin) defining absorbance for media alone used as baseline in LC50 determinations.
(§3) GI50 (dose for50%inhibition of cell proliferation) 50 = 100 x [(ATest-AT = 0)/(Amax-AT = 0)] [formula] LC50 (dose for50%cell death) 50 = 100 x [(ATest-Amin)/(AT = 0-Amin)] [formula]

DU-145 = assay: as above; assay type: cell-based; settings: Homo sapiens, DU-145, 48 h
Protocol: as §1, §2, §3

HL-60 = assay: as above; assay type: cell-based; settings: Homo sapiens, HL-60, 48 h
Protocol: as §1, §2, §3

PC-3 [2] = assay: as above; assay type: cell-based; settings: Homo sapiens, PC-3, 48 h
Protocol: as §1, §2, §3

SHP-77 [3] = assay: as above; assay type: cell-based; settings: Homo sapiens, SHP77, SHP-77, 48 h
Protocol: as §1, §2, §3

T-47D = assay: as above; assay type: cell-based; settings: Homo sapiens, T47D, T-47D, 48 h
Protocol: as §1, §2, §3

ZR-75-1 = assay: as above; assay type: cell-based; settings: Homo sapiens, ZR-75-1, 48 h
Protocol: as §1, §2, §3

[4] = as above; assay type: cell-based, human; settings: human, mrc-5 cells; MRC-5 non-transformed fibroblasts; 48 h; dose for 50% cell death
Protocol: as §1, §2, §3

MRC-5 = assay: as above; assay type: cell-based, human; settings: Homo sapiens, MRC5; MRC-5 non-transformed fibroblasts; 48 h; dose for 50% inhibition of cell proliferation; read-out: GI50
Protocol: as §1, §2, §3

A-549 [5] = assay: Caspase activity with and without caspase inhibitor (Example 97); assay type: cell-based, human; parameters: key to Inhibition of caspase activity by Inhibitor: The caspase activity detected was inhibited by the caspase inhibitor (+)
Protocol: (§4) T47D, ZR-75, PC3, SHP-77 and A-549 cells were maintained and harvested as described in Example 90. Cells were added to 96-well plates as described in Example 90. The cells were treated with 10 µM gambogic acid, in the presence and in the absence of 10 µM caspase inhibitor cbz-Val-Asp-fink (Cytovia, Inc.; WO99/18781). The plate was incubated up to 24 h at 37° C in a 5% CO2-95% humidity incubator. Caspase activity was determined by addition of a fluorogenic substrate as described in Example 90.
(§5) Gambogic acid induced caspase activity in a ratio of greater than 2.5 (+) above untreated cell levels in all the tested cancer cell lines (Table IV). The caspase activity detected was inhibited by the caspase inhibitor (+), confirming that the fluorescent signal was due to caspase activity. Table IV. Gambogic Acid as Caspase Inducers in Solid Tumor Cells

PC-3 [6] = assay: as above; assay type: cell-based, human; parameters: key to Inhibition of caspase activity by Inhibitor: The caspase activity detected was inhibited by the caspase inhibitor (+)
Protocol: as §4, §5

SHP-77 [7] = assay: as above; assay type: cell-based, human; parameters: key to Inhibition of caspase activity by Inhibitor: The caspase activity detected was inhibited by the caspase inhibitor (+)
Protocol: as §4, §5

T47D = assay: as above; assay type: cell-based, human; parameters: key to Inhibition of caspase activity by Inhibitor: The caspase activity detected was inhibited by the caspase inhibitor (+)
Protocol: as §4, §5

ZR-75 = assay: as above; assay type: cell-based, human; parameters: key to Inhibition of caspase activity by Inhibitor: The caspase activity detected was inhibited by the caspase inhibitor (+)
Protocol: as §4, §5

T47D cells = assay: Nuclear fragmentation, Syto16 DNA stain (Example 94); assay type: cell-based, human; settings: 10 µM, 24 h (Fig. 2B)
Protocol: T47D cells were grown and plated as described in Example 90. The cells were treated with 10 µM of gambogic acid and the plate was incubated for up to 24 h at 37°C in a 5% CO2-95% humidity incubator. At 24 h, the cells were incubated with a live cell nucleic acid stain, Syto16 (Molecular Probes) which stains DNA. After 2 washes with PBS, cells were examined under a fluorescence microscope. […] Nuclear fragmentation is a clear indicator of cellular apoptosis.

KB-V1 = settings: Lin et al. 1993; cited from earlier work
[8] = dose for 50% cell death, read-out: LC50 (the source's name)
[9] = dose for 50% inhibition of cell proliferation, read-out: GI50
[10] = 10 µM plus 10 µM caspase inhibitor cbz-Val-Asp-fink
[11] = Homo sapiens, 10 µM, up to 24 h

CC(C)=CCC[C@]1(C)C=Cc2c(O)c3c(c(CC=C(C)C)c2O1)O[C@]12C(=C[C@@H]4C[C@H]1C(C)(C)O[C@@]2(C/C=C(/C)C(=O)O)C4=O)C3=O [Example 1, Gambogic Acid]
CC50 (A-549 [1]; [8]): 5 µM | GI50 (A-549 [1]; [9]): 0.8 µM | CC50 (DU-145; [8]): 0.8 µM | GI50 (DU-145; [9]): 0.5 µM | CC50 (HL-60; [8]): 0.7 µM | GI50 (HL-60; [9]): 0.5 µM | CC50 (PC-3 [2]; [8]): 0.7 µM | GI50 (PC-3 [2]; [9]): 0.5 µM | CC50 (SHP-77 [3]; [8]): 0.5 µM | GI50 (SHP-77 [3]; [9]): 0.5 µM | CC50 (T-47D; [8]): 0.45 µM | GI50 (T-47D; [9]): 0.065 µM | CC50 (ZR-75-1; [8]): 0.5 µM | GI50 (ZR-75-1; [9]): 0.4 µM | CC50 at 48 h [4]: 0.5 µM | GI50 (MRC-5): 0.4 µM | Inhibition of caspase activity by Inhibitor (A-549 [5]; [10]): + | fold induction at 10 µM (A-549 [5]; Homo sapiens, A549, 10 µM, up to 24 h): > 2.5 | Inhibition of caspase activity by Inhibitor (PC-3 [6]; [10]): + | fold induction at 10 µM (PC-3 [6]; [11]): > 2.5 | Inhibition of caspase activity by Inhibitor (SHP-77 [7]; [10]): + | fold induction at 10 µM (SHP-77 [7]; Homo sapiens, SHP77, 10 µM, up to 24 h): > 2.5 | Inhibition of caspase activity by Inhibitor (T47D; [10]): + | fold induction at 10 µM (T47D; [11]): > 2.5 | Inhibition of caspase activity by Inhibitor (ZR-75; [10]): + | fold induction at 10 µM (ZR-75; Homo sapiens, ZR75, 10 µM, up to 24 h): > 2.5 | nuclear fragmentation (T47D cells): condensed and fragmented nuclei in a large population of the cells | cytotoxicity (KB-V1): cytotoxic
